Legend:
[1] = test system: HP1β clusters in Hela cells; experiment: GFP-HP1β clusters per nuclei, confocal microscopy; assay type: cell-based; settings: TSA 300 nM, 24 h, control Hela cells
Procedure: (A) Single confocal sections of Hela cells transfected with […], with or without Tau4R or TauP301L and treated 24 h later with the TSA (300 nM) for 24 h. Tau C-terminus antibodies and GFP fluorescence were used to visualize total Tau protein and HP1β respectively. Representative images are shown. (B) Quantification of HP1β clusters per nuclei visualized as described previously and realized on three independent experiments. Data are mean±SD *P<0.05 ***P<0.001.
MCF7shctrl, MCF7shTau or transfected Hela cells with Tau4R and GFP-HP1α were fixed in 4% paraformaldehyde for 30 min at room temperature. Permeabilization was carried out in 0.2% Triton X-100 in phosphate-buffered saline for 10 min at room temperature. After 1 h saturation in 2% bovine serum albumin, immunostaining was performed using Tau antibody (recognizing the C-terminal domain of Tau). […] Nuclear staining was performed by adding 1/2000 DAPI in phosphate-buffered saline for 10 min. Slides were then analyzed with a Zeiss LSM710 confocal laser scanning microscope (60× magnification). Images were collected in the Z direction at 0.80 μm intervals and quantifications were realized using the Image J plug-in.
To this end, we first performed GST-pulldown analysis using purified core histones. As shown previously, Tau interacted specifically with core histones as detected by H3, H4, H2A and H2B antibodies (data not shown). […]

[2] = test system: MCF7shctrl and MCF7shTau; experiment: Cell cycle distribution by FACS (propidium iodide and EdU staining); assay type: cell-based, human; settings: 100 nM TSA, 48 h
Procedure: FIG. 1: Tau inhibition increases MCF7 breast cancer cell line sensitivity to TSA. (A) Tau protein expression in MCF7, MCF7shctrl and shTau were quantify by Elisa. (B) Effect of 100 nM TSA (48 h) on cell death in the MCF7shctrl and MCF7shTau subclones. Cell death was determined by staining and flow cytometric analysis as described in the materials and methods. (C) Effect of 100 nM TSA (48 h) on apoptosis in the MCF7shctrl and MCF7shTau subclones. Apoptosis was determined by flow cytometric analysis of the PI-positive and Annexin-V-positive cells as described in the materials and methods. (D) Cell cycle distribution was determined by FACS analysis of combined propidium iodide and EdU staining in MCF7shctrl and MCF7shTau in the absence or presence 100 nM TSA, 48 h. Data are mean±SD **P<0.01***P<0.001. All results are representative of three independent experiments.
SH-SY5Y human neuroblastoma cells expressing Tau4R tagged with the streptavidin-binding peptide (SBP) (referred as SH-SY5Y-(SBP)Tau4R) (Chauderlier et al., 2018), SH-SY5Y-Tet-on-Tau4R, Hela cells, MCF7 and MDA-MB-231 were cultured in Dulbecco's Modified Eagle's Medium with 10% fetal bovine serum, 2 mM L-glutamine and 50 U/ml penicillin/streptomycin (Gibco) at 37° C. in 5% CO2 humidified air. Transient and stable transfections experiments were performed using the lipofectamine 3000 reagent (Invitrogen). Transient luciferase assays were performed with the dual-luciferase assay system (Promega). For stable clones, luciferase activities were measured using the luciferase assay system (Promega) and normalized against protein concentration. […]
Cell cycle, Cell death and Apoptosis were analyzed with the Click-It Plus EdU Alexa Fluor 647 kit (Thermofisher), Zombie NIR dye (Zombie NIR Fixable Viability Kit—Biolegend) and Annexin V-FITC Apoptosis Detection Kit II (Calbiochem) according to the manufacturer's guideline. Fluorescence was analyzed using a LSR FORTESSA X20 cytometer (Becton Dickinson).

## CC(/C=C/C(=O)NO)=C\[C@@H](C)C(=O)c1ccc(N(C)C)cc1 [TSA, 2,4-Heptadienamide, 7-[4-(dimethylamino)phenyl]-N-hydroxy-4,6-dimethyl-7-oxo-, (2E,4E,6R)-]
[1]
  number of HP1 clusters following TSA treatment: decrease
[2]; MCF7shTau
  cells in G1: 41.4%
[2]; MCF7shctrl
  cells in G1: 39.6%
  cells in S-phase: 19.2%

Source: patent publication US20250134952A1, “METHODS FOR IMPROVING THE EFFICACY OF HDAC INHIBITOR THERAPY AND PREDICTING THE RESPONSE TO TREATMENT WITH HDAC INHIBITOR” (INSTITUT NATIONAL DE LA SANTÉ ET DE LA RECHERCHE MÉDICALE, priority 2021, published 2025)
